For nine compounds, IC50 and inhibition results are on record in patent US9745299B2, “Substituted tricyclic benzimidazoles as kinase inhibitors” (SELVITA SA, priority 2012, dated 2017).

SMILES strings stand for the structures. Structures can show the parent of a compound that is named as a salt.

The subject of one test is HCT116 cells. The experiment in a line: MTS viability assay, HCT116. It counts as cell-based. Conditions: Homo sapiens, HCT-116, HCT116, 72 hour incubation, read-out: IC50 [μM] HCT116 ED50. The source says: (§1) The viability of CDK8 expressing cells can be evaluated using a tetrazolium salt reduction cell-based assay. In viable cells this colorimetric assay can measure mitochondrial reduction of a tetrazolium component (MTS) into an […] formazan product. For MTS viability assay, human colon cancer cell lines were used (SW480 and HCT116 cell lines), containing elevated levels of CDK8 protein and highly dependent on its expression for proliferation [see, Firenstein et al. Nature 455 (25):547-551, (2008)]. These cell lines were used to determine the activity of the compounds provided herein to inhibit CDK8 in intact cells. Human tumor cell lines were obtained from ATCC (Rockville Md. USA). In each case, and by methods known to those practiced in the art of cell culture, vaiability was measured after 72 hour incubation with the compounds provided herein using a standard MTS protocol (CellTiter 96® AQueous Non-Radioactive Cell Proliferation Assay).
(§2) Briefly, cells were plated at 10,000-20,000 cells per well in DMEM medium supplemented with 10% fetal bovine serum. The compound plate was set up by aliquoting into column 1 of a 96-well plate, the negative control (DMSO), aliquoting into column 12 the positive control, and titrating the test compound in serial dilutions into columns 2-11. An aliquot from each well of the compound plate was transferred to the plated cells and then incubated at 37° C. in 5% CO2. 20 μL of MTS tetrazolium was added to each well of optical plate and the cells were incubated at 37° C. in 5% CO2 for 2 hours. The absorbance was measured at 490 nm using a microplate reader.
(Tetrazolium assays rely on reduction of a dye to a coloured formazan, in cell work by metabolically active cells.)

The next test concerns SW480 cells. Description: MTS viability assay, SW480. The class given is cell-based. Conditions: Homo sapiens, SW480, 72 hour incubation, read-out: IC50 [μM] SW-480 ED50.
From the text: as §1, §2

In the next test the target is T1, CDK1/CyclinB (Homo sapiens, UniProt P06493).
T1 construct: purchased Millipore, Billerica, Mass., USA
Description: ADP-Glo Kinase Assay, CDK1/CyclinB. Note: ATP at apparent Km (20 µM). It counts as biochemical. The conditions noted are these: read-out: % inhibition at 1 μM CDK1/CyclinB. The protocol:
Testing of the compounds described in this invention was carried out using the ADP-Glo™ Kinase Assay from Promega Corporation (Madison, Wis., USA). […] The ADP-Glo™ Kinase Assay is a luminescent ADP detection assay to measure kinase activity by quantifying the amount of ADP produced during a kinase reaction. The kinase assay is performed in kinase assay buffer (5 mM MOPS, pH 7.5, 5 mM MgCl2, 0.4 mM EDTA, 1.5 mM DTT). Test samples initially dissolved in DMSO at 10 mM were diluted with the assay buffer to 1000 nM. A 30 μL volume/well of a mixture of substrates containing ATP (final ATP concentration in each kinase assay was equal to its apparent ATP Km). […] The assay was performed in two steps: first, after the kinase reaction, an equal volume of ADP-Glo™ Reagent was added to terminate the kinase reaction and deplete the remaining ATP. Second, the Kinase Detection Reagent was added to simultaneously convert ADP to ATP and allowed the newly synthesized ATP to be measured using a luciferase/luciferin reaction. The luminescent signal generated was proportional to the ADP concentration produced and was correlated with kinase activity.
For orientation: ADP-Glo turns the ADP formed in a reaction into a luminescent signal.

Another test has as its target T2, CDK7/CyclinH/MAT1 (Homo sapiens, UniProt P50613).
T2 construct: purchased Millipore, Billerica, Mass., USA
The experiment in a line: ADP-Glo Kinase Assay, CDK7/CyclinH/MAT1. The class given is biochemical. The conditions noted are these: read-out: % inhibition at 1 μM CDK7/CyclinH/MAT1. The protocol: (§3) Testing of the compounds described in this invention was carried out using the ADP-Glo™ Kinase Assay from Promega Corporation (Madison, Wis., USA).
(§4) The ADP-Glo™ Kinase Assay is a luminescent ADP detection assay to measure kinase activity by quantifying the amount of ADP produced during a kinase reaction. The kinase assay is performed in kinase assay buffer (5 mM MOPS, pH 7.5, 5 mM MgCl2, 0.4 mM EDTA, 1.5 mM DTT). Test samples initially dissolved in DMSO at 10 mM were diluted with the assay buffer to 1000 nM. A 30 μL volume/well of a mixture of substrates containing ATP (final ATP concentration in each kinase assay was equal to its apparent ATP Km).
(§5) The assay was performed in two steps: first, after the kinase reaction, an equal volume of ADP-Glo™ Reagent was added to terminate the kinase reaction and deplete the remaining ATP. Second, the Kinase Detection Reagent was added to simultaneously convert ADP to ATP and allowed the newly synthesized ATP to be measured using a luciferase/luciferin reaction. The luminescent signal generated was proportional to the ADP concentration produced and was correlated with kinase activity.

The target of a further test is T3, CDK8/CyclinC (Homo sapiens, UniProt P49336).
T3 construct: purchased ProQinase, Freiburg, Germany
Description: ADP-Glo Kinase Assay, CDK8/CyclinC. Note: ATP at apparent Km (53 µM). It counts as biochemical. Conditions: read-out: % inhibition at 1 μM CDK8/CyclinC. The protocol: as §3, §4, §5

Another test concerns the target T4, CDK5/p25 (Homo sapiens, UniProt Q00535).
T4 construct: purchased Millipore, Billerica, Mass., USA
The experiment in a line: ADP-Glo Kinase Assay, CDK5/p25. Note: ATP at apparent Km (12 µM). The conditions noted are these: read-out: % inhibition at 1 μM CDK5/p25. The class given is biochemical. How it is done:
as §3, §4, §5

The target in another test is T5, CDK2/CyclinE (Homo sapiens, UniProt P24941).
T5 construct: purchased Millipore, Billerica, Mass., USA
Description: ADP-Glo Kinase Assay, CDK2/CyclinE. The class given is biochemical. Conditions: read-out: % inhibition at 1 μM CDK2/CyclinE. The protocol:
as §3, §4, §5

Another test concerns the target T6, CDK9/CyclinT (Homo sapiens, UniProt P50750).
T6 construct: purchased Proqinase, Freiburg, Germany
Description: ADP-Glo Kinase Assay, CDK9/CyclinT. Note: ATP at apparent Km (26 µM). The conditions noted are these: read-out: % inhibition at 1 μM CDK9/CyclinT. The class given is biochemical. How it is done:
as §3, §4, §5

T4 sequence (Q00535 whole entry): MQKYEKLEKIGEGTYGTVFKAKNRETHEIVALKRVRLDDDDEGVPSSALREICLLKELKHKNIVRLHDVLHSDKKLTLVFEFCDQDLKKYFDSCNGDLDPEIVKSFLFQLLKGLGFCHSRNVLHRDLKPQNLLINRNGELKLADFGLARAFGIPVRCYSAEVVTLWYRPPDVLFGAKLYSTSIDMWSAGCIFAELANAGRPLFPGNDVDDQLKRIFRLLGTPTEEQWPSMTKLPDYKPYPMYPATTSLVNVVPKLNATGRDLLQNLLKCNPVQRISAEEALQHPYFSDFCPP
T4 sequence (Q15078 99-307 partner limits assumed): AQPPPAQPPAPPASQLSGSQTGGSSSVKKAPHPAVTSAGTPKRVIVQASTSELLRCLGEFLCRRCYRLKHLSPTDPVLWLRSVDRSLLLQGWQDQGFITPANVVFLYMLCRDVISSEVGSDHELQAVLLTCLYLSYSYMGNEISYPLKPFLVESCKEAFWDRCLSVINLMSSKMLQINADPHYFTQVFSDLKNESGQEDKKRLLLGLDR
T3 sequence (P49336 whole entry): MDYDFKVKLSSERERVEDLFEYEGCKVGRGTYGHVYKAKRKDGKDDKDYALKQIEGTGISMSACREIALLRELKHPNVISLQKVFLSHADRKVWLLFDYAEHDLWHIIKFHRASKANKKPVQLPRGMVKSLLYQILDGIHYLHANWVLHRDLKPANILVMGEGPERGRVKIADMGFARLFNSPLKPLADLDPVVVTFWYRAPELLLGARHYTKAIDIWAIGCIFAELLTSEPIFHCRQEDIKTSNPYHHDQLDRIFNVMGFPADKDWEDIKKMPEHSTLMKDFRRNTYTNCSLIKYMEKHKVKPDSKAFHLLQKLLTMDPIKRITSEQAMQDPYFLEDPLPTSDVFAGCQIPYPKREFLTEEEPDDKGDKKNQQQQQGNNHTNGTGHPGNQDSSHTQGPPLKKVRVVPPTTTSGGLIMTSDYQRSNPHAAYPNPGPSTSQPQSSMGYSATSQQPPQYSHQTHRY
T3 sequence (P24863 whole entry partner): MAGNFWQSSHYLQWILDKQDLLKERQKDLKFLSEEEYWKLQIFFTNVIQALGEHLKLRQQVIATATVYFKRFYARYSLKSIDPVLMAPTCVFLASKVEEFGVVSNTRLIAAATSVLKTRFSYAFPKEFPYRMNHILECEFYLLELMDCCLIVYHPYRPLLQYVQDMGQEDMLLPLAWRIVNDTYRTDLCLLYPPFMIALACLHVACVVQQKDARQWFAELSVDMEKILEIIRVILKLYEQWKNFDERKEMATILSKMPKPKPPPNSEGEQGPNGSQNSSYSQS
T6 sequence (P50750 whole entry): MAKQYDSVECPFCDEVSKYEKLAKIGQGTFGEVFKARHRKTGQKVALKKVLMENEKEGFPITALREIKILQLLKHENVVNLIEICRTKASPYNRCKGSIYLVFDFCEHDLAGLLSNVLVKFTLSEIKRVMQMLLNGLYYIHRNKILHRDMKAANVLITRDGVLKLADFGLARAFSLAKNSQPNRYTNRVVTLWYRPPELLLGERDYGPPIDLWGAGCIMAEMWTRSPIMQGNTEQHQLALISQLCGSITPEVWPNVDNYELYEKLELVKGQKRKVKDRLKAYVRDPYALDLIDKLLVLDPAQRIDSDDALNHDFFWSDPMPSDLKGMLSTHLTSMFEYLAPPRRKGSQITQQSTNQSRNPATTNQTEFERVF
T6 sequence (O60563 whole entry partner): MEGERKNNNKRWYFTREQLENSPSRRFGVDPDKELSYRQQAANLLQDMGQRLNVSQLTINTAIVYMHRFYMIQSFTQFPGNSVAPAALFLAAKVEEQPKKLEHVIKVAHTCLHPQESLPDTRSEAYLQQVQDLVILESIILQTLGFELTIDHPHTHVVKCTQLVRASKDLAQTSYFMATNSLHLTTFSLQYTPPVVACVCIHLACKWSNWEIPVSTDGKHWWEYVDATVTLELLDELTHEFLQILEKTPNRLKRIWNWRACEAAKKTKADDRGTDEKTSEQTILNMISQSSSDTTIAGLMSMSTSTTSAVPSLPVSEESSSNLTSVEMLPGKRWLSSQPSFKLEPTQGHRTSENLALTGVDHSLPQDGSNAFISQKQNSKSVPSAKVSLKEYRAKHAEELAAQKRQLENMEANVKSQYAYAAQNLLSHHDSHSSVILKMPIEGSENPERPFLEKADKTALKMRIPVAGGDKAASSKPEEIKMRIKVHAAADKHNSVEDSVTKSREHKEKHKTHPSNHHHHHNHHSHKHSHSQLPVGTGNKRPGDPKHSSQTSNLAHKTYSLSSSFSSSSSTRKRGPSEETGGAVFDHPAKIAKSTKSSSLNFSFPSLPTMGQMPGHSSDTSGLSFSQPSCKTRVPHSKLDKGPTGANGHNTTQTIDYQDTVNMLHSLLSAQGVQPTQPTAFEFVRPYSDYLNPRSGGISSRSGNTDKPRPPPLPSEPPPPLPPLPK
T2 sequence (P50613 whole entry): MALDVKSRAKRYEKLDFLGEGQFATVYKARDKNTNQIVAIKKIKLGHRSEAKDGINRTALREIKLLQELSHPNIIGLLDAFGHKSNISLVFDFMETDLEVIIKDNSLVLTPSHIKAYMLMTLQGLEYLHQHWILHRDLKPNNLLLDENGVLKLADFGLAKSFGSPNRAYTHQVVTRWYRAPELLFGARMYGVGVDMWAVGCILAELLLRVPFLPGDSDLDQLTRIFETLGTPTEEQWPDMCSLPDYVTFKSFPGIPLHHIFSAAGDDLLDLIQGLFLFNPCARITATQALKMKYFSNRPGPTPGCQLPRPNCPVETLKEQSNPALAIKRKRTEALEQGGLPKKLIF
T2 sequence (P51946 whole entry partner): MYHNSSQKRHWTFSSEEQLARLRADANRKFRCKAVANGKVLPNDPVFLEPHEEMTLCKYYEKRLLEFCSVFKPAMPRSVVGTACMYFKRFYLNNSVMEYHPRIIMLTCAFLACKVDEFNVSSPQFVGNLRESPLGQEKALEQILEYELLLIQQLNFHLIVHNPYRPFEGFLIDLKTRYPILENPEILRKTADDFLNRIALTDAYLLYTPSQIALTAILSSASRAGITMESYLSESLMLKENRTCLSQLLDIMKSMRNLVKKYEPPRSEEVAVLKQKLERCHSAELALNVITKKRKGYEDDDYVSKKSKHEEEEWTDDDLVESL
T2 sequence (P51948 whole entry partner): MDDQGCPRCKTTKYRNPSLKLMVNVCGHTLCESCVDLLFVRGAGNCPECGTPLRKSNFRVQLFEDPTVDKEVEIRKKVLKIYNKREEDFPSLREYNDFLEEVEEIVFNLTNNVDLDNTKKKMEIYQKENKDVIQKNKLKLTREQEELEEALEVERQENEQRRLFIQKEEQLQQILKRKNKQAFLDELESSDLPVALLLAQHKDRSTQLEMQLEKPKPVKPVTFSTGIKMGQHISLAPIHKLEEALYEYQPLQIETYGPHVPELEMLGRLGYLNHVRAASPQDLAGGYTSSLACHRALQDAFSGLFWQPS
T1 sequence (P06493 whole entry): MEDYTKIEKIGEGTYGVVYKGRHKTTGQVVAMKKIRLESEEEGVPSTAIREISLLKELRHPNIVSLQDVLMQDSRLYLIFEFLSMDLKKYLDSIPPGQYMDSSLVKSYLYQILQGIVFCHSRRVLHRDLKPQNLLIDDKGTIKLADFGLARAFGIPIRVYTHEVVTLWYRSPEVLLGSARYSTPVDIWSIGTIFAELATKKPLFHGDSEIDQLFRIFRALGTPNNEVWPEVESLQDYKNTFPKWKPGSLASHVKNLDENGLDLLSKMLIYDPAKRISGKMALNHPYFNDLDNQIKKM
T1 sequence (P14635 whole entry partner): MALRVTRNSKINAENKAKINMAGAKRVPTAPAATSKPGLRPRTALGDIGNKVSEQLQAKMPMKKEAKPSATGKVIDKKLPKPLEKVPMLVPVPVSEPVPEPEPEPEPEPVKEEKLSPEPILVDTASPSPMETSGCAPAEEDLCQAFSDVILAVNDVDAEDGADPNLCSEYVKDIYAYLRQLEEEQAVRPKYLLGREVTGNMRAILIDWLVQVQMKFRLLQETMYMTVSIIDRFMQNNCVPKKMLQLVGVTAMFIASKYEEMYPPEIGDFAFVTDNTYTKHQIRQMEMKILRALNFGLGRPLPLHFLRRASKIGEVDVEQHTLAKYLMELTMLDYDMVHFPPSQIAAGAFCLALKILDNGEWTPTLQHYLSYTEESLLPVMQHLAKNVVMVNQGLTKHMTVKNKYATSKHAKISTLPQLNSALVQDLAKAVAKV

For `NCCNc1nc2c(Br)c(Br)c(Br)c3c2n1CCC3` [Example 1A, N-(7,8,9-tribromo-5,6-dihydro-4H-imidazo[4,5,1-ij]quinolin-2-yl)ethane-1,2-diamine hydrochloride], the half-maximal inhibitory concentration (IC50) (commonly the concentration needed to halve the response being measured) with HCT116 cells is 1.2 µM; in the test on SW480 cells it was 1.9 µM. In addition, the inhibition at 1 µM on CDK1/CyclinB was found to be 0%; on CDK7/CyclinH/MAT1, 0%; at CDK8/CyclinC, 52%; on CDK5/p25, 0%; at CDK2/CyclinE it was 0%; at CDK9/CyclinT, 33%.

With `O=[N+]([O-])c1c(Br)c(Br)c2c3c1nc(N1CCNCC1)n3CCC2` [Example 1X], the values for the half-maximal inhibitory concentration (IC50) in the test on HCT116 cells and in the test with SW480 cells were 6.7 µM and 1.4 µM, respectively. In addition, the inhibition at 1 µM at CDK1/CyclinB came to 15%; on CDK7/CyclinH/MAT1 it was 0%; on CDK8/CyclinC, 71%; on CDK5/p25, 27%; at CDK2/CyclinE, 8%; at CDK9/CyclinT, 9%.

In the case of `Brc1c(Br)c2c3c(nc(N4CCNCC4)n3CCC2)c1I` [Example 1Y], the half-inhibitory concentration (IC50) with HCT116 cells was found to be 1.3 µM; with SW480 cells it was 0.7 µM. Moreover, the inhibition at 1 µM on CDK1/CyclinB was determined as 32%; on CDK7/CyclinH/MAT1, 0%; on CDK8/CyclinC, 100%; on CDK5/p25, 4%; on CDK2/CyclinE, 11%; on CDK9/CyclinT, 39%.

As to `CCN(CC)c1nc2c(Br)c(Br)c(Br)c3c2n1CCC3` [Example 3I], the 50% inhibitory concentration (IC50) was determined as 6.8 µM in the test on HCT116 cells and 5 µM in the test with SW480 cells. For the same compound, the inhibition at 1 µM came out at 0% at CDK1/CyclinB; 0% at CDK7/CyclinH/MAT1; 85% at CDK8/CyclinC; 14% at CDK5/p25; 0% on CDK2/CyclinE; 14% on CDK9/CyclinT.

With `CN1CCN(c2nc3c(Br)c(Br)c(Br)c4c3n2CCC4)CC1` [Example 3M], the IC50 with HCT116 cells was 1.2 µM; in the test with SW480 cells, 2.3 µM. In addition, the inhibition at 1 µM at CDK1/CyclinB turned out to be 7%; at CDK7/CyclinH/MAT1, 0%; on CDK8/CyclinC, 75%; at CDK5/p25, 36%; at CDK2/CyclinE, 2%; at CDK9/CyclinT, 17%.

Take `CC1CN(c2nc3c(Br)c(Br)c(Br)c4c3n2CCC4)CCN1` (stereo not drawn) [Example 3P]: the values for the IC50 with HCT116 cells and in the test with SW480 cells were 9.3 µM and 1.4 µM, respectively. Further, the inhibition at 1 µM on CDK1/CyclinB came out at 8%; on CDK7/CyclinH/MAT1, 16%; at CDK8/CyclinC it was 88%; at CDK5/p25, 0%; on CDK2/CyclinE, 5%; on CDK9/CyclinT, 22%.

Turning to `Cc1c(Br)c(Br)c2c3c1nc(C1CCN(C)CC1)n3CCC2` [Example 7A, 7,8-dibromo-9-methyl-2-(1-methylpiperidin-4-yl)-5,6-dihydro-4H-imidazo[4,5,1-ij]quinoline hydrochloride], the concentration for half-maximal inhibition (IC50) in the test on HCT116 cells and in the test with SW480 cells was 1.3 µM in each case. Also, the inhibition at 1 µM on CDK1/CyclinB stood at 0%; on CDK7/CyclinH/MAT1 it was 0%; on CDK8/CyclinC, 92%; on CDK5/p25, 0%; at CDK2/CyclinE, 6%; at CDK9/CyclinT, 19%.

For the compound `Cc1c(Br)c(Br)c2c3c1nc(C1CCNCC1)n3CCC2` [Example 7C], the concentration for half-maximal inhibition (IC50) with HCT116 cells is 1.1 µM; in the test with SW480 cells, 0.9 µM. Also, the inhibition at 1 µM came out at 0% at CDK1/CyclinB; 0% on CDK7/CyclinH/MAT1; 83% at CDK8/CyclinC; 0% on CDK5/p25; 7% on CDK2/CyclinE; 20% at CDK9/CyclinT.

Regarding `Brc1c(Br)c2c3c(nc(C4CCNCC4)n3CCC2)c1Br` [Example 7E], the values for the concentration for half-maximal inhibition (IC50) in the test with HCT116 cells and in the test on SW480 cells were 0.3 µM and 0.6 µM, respectively. In addition, the inhibition at 1 µM amounted to 43% on CDK1/CyclinB; 15% at CDK7/CyclinH/MAT1; 94% at CDK8/CyclinC; 5% on CDK5/p25; 22% on CDK2/CyclinE; 39% at CDK9/CyclinT.
